Assay [1] concerns the target T1, Tumor necrosis factor (Homo sapiens, UniProt P01375). Description: TNFa-triggered NF-kB activation inhibitors, SAR follow-up, cell-based, revised (AID 2337). The format is functional.
For assay [2], the system named is HEK293. Description: NOD2 signaling inhibitors in MDP-stimulated cells, cell-based, uHTS, luminescence (AID 2001). The format is functional. Conditions: Homo sapiens.
For assay [3], the target named is T2, Nucleotide-binding oligomerization domain-containing protein 2 (Homo sapiens, UniProt Q9HC29). Description: PubChem AID 2334. Type of assay: functional.
T2 sequence (Q9HC29 whole entry, the tested form may be a part): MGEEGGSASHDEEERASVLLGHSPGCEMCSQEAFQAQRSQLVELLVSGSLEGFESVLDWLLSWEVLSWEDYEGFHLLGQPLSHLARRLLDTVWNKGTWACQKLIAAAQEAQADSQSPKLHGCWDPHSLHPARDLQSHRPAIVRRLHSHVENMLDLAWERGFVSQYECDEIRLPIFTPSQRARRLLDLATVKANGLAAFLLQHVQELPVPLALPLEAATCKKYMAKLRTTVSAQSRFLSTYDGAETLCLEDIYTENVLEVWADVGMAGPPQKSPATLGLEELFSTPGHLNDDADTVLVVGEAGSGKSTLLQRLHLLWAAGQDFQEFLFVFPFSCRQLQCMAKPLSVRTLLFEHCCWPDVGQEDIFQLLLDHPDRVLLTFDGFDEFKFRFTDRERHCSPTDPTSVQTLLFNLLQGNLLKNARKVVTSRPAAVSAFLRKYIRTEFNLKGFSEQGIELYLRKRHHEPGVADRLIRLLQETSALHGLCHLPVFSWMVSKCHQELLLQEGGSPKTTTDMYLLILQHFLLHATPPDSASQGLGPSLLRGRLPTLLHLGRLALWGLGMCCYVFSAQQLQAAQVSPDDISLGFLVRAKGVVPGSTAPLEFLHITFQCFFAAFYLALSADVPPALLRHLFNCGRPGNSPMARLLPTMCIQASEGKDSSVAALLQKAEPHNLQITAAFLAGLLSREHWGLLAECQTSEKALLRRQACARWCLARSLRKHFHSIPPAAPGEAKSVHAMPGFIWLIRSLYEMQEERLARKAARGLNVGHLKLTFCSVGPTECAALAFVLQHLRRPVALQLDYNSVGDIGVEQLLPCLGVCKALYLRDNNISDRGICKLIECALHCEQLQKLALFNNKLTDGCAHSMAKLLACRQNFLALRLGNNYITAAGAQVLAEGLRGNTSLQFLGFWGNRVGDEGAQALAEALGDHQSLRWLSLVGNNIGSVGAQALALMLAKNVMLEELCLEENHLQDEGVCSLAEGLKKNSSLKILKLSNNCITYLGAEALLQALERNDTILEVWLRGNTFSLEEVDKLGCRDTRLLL
Assay [4] has as its system HEK293. Description: SAR analysis of compounds that are cytotoxic to HEK293 - Set 2. [Related pubchem assays (depositor defined):AID1575, AID1578, AID1849, AID2001, AID2333, AID2334, AID2335, AID2337, AID2800]. Type of assay: functional, cell-based. Particulars: Homo sapiens.
Assay [5] concerns the target T3, Interleukin-8 (Homo sapiens, UniProt P10145).
T3 sequence (P10145 whole entry): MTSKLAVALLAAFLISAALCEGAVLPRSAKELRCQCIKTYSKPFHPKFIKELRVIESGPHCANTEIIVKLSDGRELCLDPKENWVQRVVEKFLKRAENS
Description: SAR analysis of GM-Tri-DAP induced IL-8 secretion in MCF-7/NOD1 cells - Set 2. [Related pubchem assays (depositor defined):AID1575, AID1578, AID2333]. Type of assay: functional, cell-based.

The target in assay [6] is T1, Tumor necrosis factor. Description: TNFa-triggered NF-kB activation inhibitors, SAR follow-up, cell-based, set 3 (AID 2801). Type of assay: functional.
In assay [7] the target is T4, Nucleotide-binding oligomerization domain-containing protein 1 (Homo sapiens, UniProt Q9Y239).
T4 sequence (Q9Y239 whole entry): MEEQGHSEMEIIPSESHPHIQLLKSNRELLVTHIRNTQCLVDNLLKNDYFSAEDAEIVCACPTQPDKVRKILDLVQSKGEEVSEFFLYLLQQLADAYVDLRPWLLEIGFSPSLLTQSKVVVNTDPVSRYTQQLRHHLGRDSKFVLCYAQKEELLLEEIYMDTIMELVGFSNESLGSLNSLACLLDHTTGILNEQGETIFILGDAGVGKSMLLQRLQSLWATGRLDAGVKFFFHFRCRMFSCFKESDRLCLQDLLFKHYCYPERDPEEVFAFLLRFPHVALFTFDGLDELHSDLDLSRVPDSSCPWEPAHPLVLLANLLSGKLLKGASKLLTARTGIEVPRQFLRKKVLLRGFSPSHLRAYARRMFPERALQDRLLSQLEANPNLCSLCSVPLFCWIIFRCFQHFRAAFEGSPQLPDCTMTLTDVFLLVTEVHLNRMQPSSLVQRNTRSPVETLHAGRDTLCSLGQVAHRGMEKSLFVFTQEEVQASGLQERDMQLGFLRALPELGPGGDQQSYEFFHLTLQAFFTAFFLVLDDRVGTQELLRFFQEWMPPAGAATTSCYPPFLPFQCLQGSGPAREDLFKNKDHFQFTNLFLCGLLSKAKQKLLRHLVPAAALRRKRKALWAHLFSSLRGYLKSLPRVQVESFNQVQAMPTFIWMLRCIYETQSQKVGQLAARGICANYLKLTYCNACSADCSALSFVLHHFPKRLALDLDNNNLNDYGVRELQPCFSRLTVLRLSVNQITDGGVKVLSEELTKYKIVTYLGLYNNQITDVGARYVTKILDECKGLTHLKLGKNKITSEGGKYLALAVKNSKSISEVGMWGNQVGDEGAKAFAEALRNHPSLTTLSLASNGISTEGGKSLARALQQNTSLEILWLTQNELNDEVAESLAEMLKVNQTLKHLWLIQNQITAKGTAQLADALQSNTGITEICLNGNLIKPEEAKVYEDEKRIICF
Description: NOD1 signaling inhibitors, SAR follow-up, revised (AID 2333). Type of assay: functional.

The target of assay [8] is T4, Nucleotide-binding oligomerization domain-containing protein 1. In words: SAR analysis of compounds that inhibit NOD1 - Set 3. [Related pubchem assays (depositor defined):AID1566, AID1575, AID1578, AID1849, AID1852, AID2333, AID2335, AID2466]. Type of assay: functional.
The subject of assay [9] is HEK293. In words: cells. Type of assay: functional, cell-based. Particulars: Homo sapiens.
Assay [10] concerns HEK293. In words: NOD1 signaling inhibitors, primary screen, cell-based, luminescence, uHTS (AID 1578). The format is functional. Particulars: Homo sapiens.
Assay [11] has as its system HEK293. Description: SAR analysis of compounds that are cytotoxic to HEK293 - Set 3. [Related pubchem assays (depositor defined):AID1575, AID1578, AID1848, AID1849, AID2001, AID2333, AID2334, AID2335, AID2337, AID2469]. Type of assay: functional, cell-based. Particulars: Homo sapiens.
Assay [12] deals with T2, Nucleotide-binding oligomerization domain-containing protein 2. In words: NOD2 signaling inhibitors, analog potency, SAR follow-up, cell-based, set 3 (AID 2799). The format is functional.
Assay [13] shares this target. Description: NOD2 inhibitors, SAR follow-up, set 2 (AID 2475). The format is functional.
The test system of assay [14] is HEK293. Description: cells. The format is functional, cell-based. Conditions: Homo sapiens. This is another data set of the same source.
For assay [15], the system named is HEK293. In words: cells. Conditions: Homo sapiens.
The target of assay [16] is T4, Nucleotide-binding oligomerization domain-containing protein 1. Description: SAR analysis of NF-kappaB dependent luciferase using DAP as an inducer - Set 2. [Related pubchem assays (depositor defined):AID1566, AID1575, AID1578, AID1579, AID1849, AID1852, AID2264]. The format is functional.
The target of assay [17] is T3, Interleukin-8. In words: SAR analysis of Tumor necrosis factor alpha (TNF-alpha) induced IL-8 secretion in MCF-7/NOD1 cells - Set 2. [Related pubchem assays (depositor defined):AID1575, AID2250, AID2260]. The format is functional, cell-based.
The target of assay [18] is T5, Sentrin-specific protease 1 (Homo sapiens, UniProt Q9P0U3).
T5 sequence (Q9P0U3 whole entry): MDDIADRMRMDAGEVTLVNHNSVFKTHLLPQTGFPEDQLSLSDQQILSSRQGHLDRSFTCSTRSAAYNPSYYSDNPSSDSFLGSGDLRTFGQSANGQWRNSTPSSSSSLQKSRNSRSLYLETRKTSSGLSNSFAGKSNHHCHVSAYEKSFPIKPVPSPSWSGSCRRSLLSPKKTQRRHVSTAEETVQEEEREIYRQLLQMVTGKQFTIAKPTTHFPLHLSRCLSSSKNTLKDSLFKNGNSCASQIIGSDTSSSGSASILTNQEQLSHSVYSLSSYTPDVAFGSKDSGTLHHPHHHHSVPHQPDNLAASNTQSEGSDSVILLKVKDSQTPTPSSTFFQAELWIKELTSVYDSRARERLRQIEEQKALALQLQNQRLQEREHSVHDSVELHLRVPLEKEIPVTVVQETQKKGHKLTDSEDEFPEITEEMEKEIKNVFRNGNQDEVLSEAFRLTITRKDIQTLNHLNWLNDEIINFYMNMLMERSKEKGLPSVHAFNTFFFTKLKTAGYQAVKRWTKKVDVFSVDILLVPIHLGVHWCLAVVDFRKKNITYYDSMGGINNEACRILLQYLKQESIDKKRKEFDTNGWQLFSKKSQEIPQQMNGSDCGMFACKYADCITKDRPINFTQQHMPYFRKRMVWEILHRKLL
In words: potency of human SENP1 inhibitors, dose response, biochemical, kinetic FRET (AID 651697). The format is functional. Conditions: read-out: IC50_Mean.

In assay [19] the target is Lysine-specific demethylase 4C (Homo sapiens, UniProt Q9H3R0). In words: GASC-1 (JMJD2C) histone demethylase inhibitors, dose response, biochemical, DELFIA europium, cherry-picked samples (AID 488835). The format is functional.
Lysine-specific demethylase 4C, sequence (Q9H3R0 whole entry): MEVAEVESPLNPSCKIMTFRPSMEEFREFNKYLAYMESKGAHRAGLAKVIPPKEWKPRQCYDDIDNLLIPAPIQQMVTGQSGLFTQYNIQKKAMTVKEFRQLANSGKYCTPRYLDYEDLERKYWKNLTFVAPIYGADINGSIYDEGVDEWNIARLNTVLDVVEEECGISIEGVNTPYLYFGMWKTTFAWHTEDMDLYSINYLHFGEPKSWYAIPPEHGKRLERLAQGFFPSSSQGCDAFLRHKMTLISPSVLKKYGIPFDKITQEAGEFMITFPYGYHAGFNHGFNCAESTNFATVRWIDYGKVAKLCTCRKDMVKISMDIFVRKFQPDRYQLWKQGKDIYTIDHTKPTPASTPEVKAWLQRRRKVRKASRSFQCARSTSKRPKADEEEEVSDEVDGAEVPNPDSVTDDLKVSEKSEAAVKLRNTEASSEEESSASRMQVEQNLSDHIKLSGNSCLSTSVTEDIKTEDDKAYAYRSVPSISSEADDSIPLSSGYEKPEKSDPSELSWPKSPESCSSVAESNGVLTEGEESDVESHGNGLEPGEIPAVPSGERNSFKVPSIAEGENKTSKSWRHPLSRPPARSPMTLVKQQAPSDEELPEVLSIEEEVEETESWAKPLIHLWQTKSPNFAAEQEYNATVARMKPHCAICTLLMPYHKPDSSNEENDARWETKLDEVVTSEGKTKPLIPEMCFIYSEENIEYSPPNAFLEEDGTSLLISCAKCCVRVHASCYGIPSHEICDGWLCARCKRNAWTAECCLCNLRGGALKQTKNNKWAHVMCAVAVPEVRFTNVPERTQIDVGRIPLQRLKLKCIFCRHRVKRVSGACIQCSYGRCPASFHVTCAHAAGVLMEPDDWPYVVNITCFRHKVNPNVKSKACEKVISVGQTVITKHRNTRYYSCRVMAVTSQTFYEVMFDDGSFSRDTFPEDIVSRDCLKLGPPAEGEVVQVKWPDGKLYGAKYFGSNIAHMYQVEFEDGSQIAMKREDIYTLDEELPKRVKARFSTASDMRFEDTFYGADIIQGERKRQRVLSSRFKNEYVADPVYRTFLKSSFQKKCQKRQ
In assay [20] the target is Lysine-specific demethylase 4A (Homo sapiens, UniProt O75164). In words: JMJD2A histone demethylase inhibitors, dose response, selectivity assay for GASC-1 inhibitor project, biochemical, DELFIA europium, cherry-picked samples (AID 488840).
Lysine-specific demethylase 4A, sequence (O75164 whole entry): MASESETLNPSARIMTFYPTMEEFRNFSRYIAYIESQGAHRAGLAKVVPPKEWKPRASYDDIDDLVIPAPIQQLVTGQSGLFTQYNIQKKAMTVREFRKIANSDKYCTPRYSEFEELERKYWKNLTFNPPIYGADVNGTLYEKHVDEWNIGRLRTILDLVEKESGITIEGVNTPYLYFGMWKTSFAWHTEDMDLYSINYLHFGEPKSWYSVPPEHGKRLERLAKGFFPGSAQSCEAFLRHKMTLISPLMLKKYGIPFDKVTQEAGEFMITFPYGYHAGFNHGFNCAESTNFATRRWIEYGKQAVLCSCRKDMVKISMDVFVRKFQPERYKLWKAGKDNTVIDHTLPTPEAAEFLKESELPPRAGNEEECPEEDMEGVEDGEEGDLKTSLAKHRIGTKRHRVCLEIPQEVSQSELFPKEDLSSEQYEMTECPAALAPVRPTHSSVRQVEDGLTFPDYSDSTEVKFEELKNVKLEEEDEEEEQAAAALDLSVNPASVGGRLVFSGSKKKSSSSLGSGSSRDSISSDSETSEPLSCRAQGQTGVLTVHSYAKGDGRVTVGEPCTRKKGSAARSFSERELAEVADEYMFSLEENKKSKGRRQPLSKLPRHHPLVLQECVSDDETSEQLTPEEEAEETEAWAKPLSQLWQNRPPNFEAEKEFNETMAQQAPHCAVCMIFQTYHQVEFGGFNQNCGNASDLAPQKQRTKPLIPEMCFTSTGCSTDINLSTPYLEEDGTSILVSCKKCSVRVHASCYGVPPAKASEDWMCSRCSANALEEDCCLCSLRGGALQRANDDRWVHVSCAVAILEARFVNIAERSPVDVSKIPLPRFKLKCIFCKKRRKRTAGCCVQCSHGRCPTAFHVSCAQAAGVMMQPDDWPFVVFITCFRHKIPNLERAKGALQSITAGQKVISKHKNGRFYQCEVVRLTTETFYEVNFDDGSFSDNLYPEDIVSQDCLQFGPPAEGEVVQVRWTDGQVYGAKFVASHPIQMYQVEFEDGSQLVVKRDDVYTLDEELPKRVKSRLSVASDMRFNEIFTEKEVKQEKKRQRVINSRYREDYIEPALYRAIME
Assay [21] deals with Dual specificity tyrosine-phosphorylation-regulated kinase 1A (Rattus norvegicus, UniProt Q63470). Type of assay: biochemical, Homo sapiens.
Assay [22] deals with T5, Sentrin-specific protease 1. In words: Dose response confirmation of small molecule inhibitors of the catalytic domain of the SUMO protease, SENP1 in a FRET assay. Type of assay: functional. Particulars: read-out: IC50_Mean.
Assay [23] deals with T6, Rac GTPase-activating protein 1 (Homo sapiens, UniProt Q9H0H5).
T6 sequence (Q9H0H5 whole entry): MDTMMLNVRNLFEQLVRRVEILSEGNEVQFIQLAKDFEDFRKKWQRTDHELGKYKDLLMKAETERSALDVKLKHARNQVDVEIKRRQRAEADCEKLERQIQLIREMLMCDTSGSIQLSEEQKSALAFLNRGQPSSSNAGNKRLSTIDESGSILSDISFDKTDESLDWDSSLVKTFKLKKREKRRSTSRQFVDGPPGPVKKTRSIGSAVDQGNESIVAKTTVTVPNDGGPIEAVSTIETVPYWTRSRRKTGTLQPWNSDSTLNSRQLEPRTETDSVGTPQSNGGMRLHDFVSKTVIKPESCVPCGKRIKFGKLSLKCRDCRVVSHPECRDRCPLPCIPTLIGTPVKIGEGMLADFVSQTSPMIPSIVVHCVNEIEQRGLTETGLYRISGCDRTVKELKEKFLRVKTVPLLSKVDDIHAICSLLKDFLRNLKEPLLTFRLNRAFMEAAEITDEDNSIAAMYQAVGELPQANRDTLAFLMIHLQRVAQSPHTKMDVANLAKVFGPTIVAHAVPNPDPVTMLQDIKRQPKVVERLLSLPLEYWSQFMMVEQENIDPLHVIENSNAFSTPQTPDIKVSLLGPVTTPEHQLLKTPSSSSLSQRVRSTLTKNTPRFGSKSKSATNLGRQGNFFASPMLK
In words: MgcRacGAP GTPase-activating activity inhibitors, confirmation, biochemical, ADP Hunter fluorescence, primary and confirmatory (AID 624330). Type of assay: functional.

“And” between values parts separate entries of the source, which are not always exact repeats. Identical values can stand only once. The source made the active and inactive calls.

T1 sequence (P01375 whole entry): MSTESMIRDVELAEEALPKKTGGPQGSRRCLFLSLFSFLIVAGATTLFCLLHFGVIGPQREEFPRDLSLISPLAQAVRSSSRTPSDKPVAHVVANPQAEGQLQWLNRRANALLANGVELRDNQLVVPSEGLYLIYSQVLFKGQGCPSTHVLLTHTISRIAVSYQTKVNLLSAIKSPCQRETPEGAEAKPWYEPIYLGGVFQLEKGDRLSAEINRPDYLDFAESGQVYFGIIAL

Turning to `C/C=C/Cn1c(SCCCc2ccccc2)nc2c1c(=O)[nH]c(=O)n2C`, the IC50 at Tumor necrosis factor [1] is 62.7 µM (inactive); in the assay on HEK293 [2], 16.2 µM (inactive); in assay [3], 16.9 µM (active); with HEK293 [4], > 20 µM (inactive); on Interleukin-8 [5], 3.43 µM (active); against Tumor necrosis factor [6], 18.2 µM (active) and 18.6 µM (inactive). The IC50 in assay [7] is 1.81 µM (active); in assay [8], 1.36 µM (active); in the assay on HEK293 [9], > 20 µM (inactive); in the assay on HEK293 [11], > 20 µM (inactive); in assay [12], 7.97 µM (active) and 10.6 µM (active); in [13], 4.18 µM (active). The IC50 was > 20 µM (inactive) with HEK293 [14], > 20 µM (inactive) in the assay on HEK293 [15], 14.4 µM (active) in assay [16] and > 25 µM (inactive) on Interleukin-8 [17]. The EC50 with HEK293 [10] was 6.37 µM (active).
Consider `C[C@@H]1O[C@@H](OC[C@H]2O[C@@H](Oc3cc(O)c4c(=O)cc(-c5ccc(O)c(O)c5)oc4c3)[C@H](O)[C@@H](O)[C@@H]2O)[C@H](O)[C@H](O)[C@H]1O`, for which the IC50 in [18] was 14.7 µM (active); in [22], 6.84 µM (active); in assay [23], 42.7 µM (active). For the same molecule, the values for the AC50 in assay [19], in assay [20] and in [21] were 2.82 µM (active), 2.86 µM (active) and 15.8 µM (active), respectively.

In general, EC50 refers to the concentration at which the effect is half-maximal. In general, AC50 refers to the midpoint of the concentration-response curve, whichever way the signal moves.
